The source of these data is patent publication US20180021395A1, “EUCOMMIA LEAF EXTRACT, AND PREPARATION METHOD AND USE THEREOF” (SICHUAN JIUZHANG BIOLOGICAL SCIENCE AND TECHNOLOGY CO., LTD, priority 2015, published 2018).

Assay [1] relates to psoriasis vulgaris model (transplanted psoriasis skin damage). The assay can be described thus: Psoriasis vulgaris model: SCID mice transplanted with patient psoriasis skin, HE histology and Baker scores. It counts as in vivo. On the procedure: Female and male SCID mice were separately fed for one week, and allowed to adapt growing environment. Patients with psoriasis vulgaris or plaque-type psoriasis were chosen (indentifying the informed consent). […] Aseptic packaging was wrapped up with bandage macerated with normal saline, to prepare for transplantation. According to the body weight of SCID mice, 3% chloral hydrate (0.1 ml/10 g) was administrated, followed by skin preparation and unhair. […] After transplantation of skin, mice were raised in separated cages, and all processes were finished within 2 h. After 10 days, skin damage arounding was injected with PBMC (1×10^6/mouse) provided by transplantation supplier and treated with ConA. After two weeks, exterior packing was dismantled to observe the survival situation of skin and confirm the success of model establishment, and the successful model was used for further experiment. […] The administration was kept for 10 days. […] Skin damage was trimmed into suitable size, dehydrated, embedded, sliced, and stained with HE. […] Baker scores were calculated, and the difference in data of each group was compared. All values were processed using SPSS13.0 software, and the experimental results were presented as x±s. p<0.05 was considered to be a statistical difference. The mean of multi-samples was compared using analysis of variance.

Another assay deals with cAMP and cGMP in serum. The assay can be described thus: Psoriasis vulgaris model: content and ratio of cAMP and cGMP in serum (ELISA). The class given is in vivo, SCID mice. Particulars: x ± s, n = 10. From the text:
(§1) Female and male SCID mice were separately fed for one week, and allowed to adapt growing environment. Patients with psoriasis vulgaris or plaque-type psoriasis were chosen (indentifying the informed consent). Dermatochalasis containing 2 cm×2 cm psoriasis skin damage in patients was chosen to make a fusiform incision, and full-thickness of skin was cut and trimmed into free skin graft with a suitable thickness of 0.6 cm×0.6 cm. Aseptic packaging was wrapped up with bandage macerated with normal saline, to prepare for transplantation. According to the body weight of SCID mice, 3% chloral hydrate (0.1 ml/10 g) was administrated, followed by skin preparation and unhair. Epidermis was scissored and cut into fascia layer, and the trimmed skin graft was sutured using 3-0 silk thread and subjected to pressure dressing with cotton ball soaking with normal saline. After transplantation of skin, mice were raised in separated cages, and all processes were finished within 2 h. After 10 days, skin damage arounding was injected with PBMC (1×10^6/mouse) provided by transplantation supplier and treated with ConA. After two weeks, exterior packing was dismantled to observe the survival situation of skin and confirm the success of model establishment, and the successful model was used for further experiment.
The administration was kept for 10 days.
Before sacrificing guinea pigs, blood was taken and centrifuged under 2000r/rain, to collect serum. Using ELISA kit, optical density was detected as instructions in kit. The results were calculated by standard curve, and the ratio of cAMP/cGMP was calculated according to the results.
All values were processed using SPSS13.0 software, and the experimental results were presented as x±s. p<0.05 was considered to be a statistical difference. The mean of multi-samples was compared using analysis of variance.
In general terms: In an ELISA, binding on a coated surface is turned into a signal by an enzyme label.

The next assay has as its system VEGF. The assay can be described thus: Psoriasis vulgaris model: VEGF levels in serum. Particulars: after 10 days administration, x ± s, n = 10. It counts as in vivo, SCID mice.
Source text: as §1, with “After two weeks, exterior packing was dismantled to observe the survival situation of skin and confirm the success of model establishment, and the successful model was used for further experiment.” left out
Before sacrificing guinea pigs, blood was taken and centrifuged under 2000r/rain, to collect serum. Using ELISA kit, optical density was detected as instructions in kit. The results were calculated by standard curve, and the ratio of cAMP/cGMP was calculated according to the results. […]

Setting [2] is: transplanted skin, HE stain, after 10 days administration.
The mark [3] stands for this setting: serum, ELISA, after 10 days administration.

Marks after values point to notes of the source that are not given here.

Take `COc1cc(C)c(/C=C/C(C)=C/C=C/C(C)=C/C(=O)O)c(C)c1C` [Positive control, Acitretin A capsule]: the Number of acanthocytes in assay [1] (10 days administration, x ± s, n = 10) is on record as 27.09 ± 8.83^a. Besides, the “Monocytes (count)” value in assay [1] (surrounding superficial layer blood vessels in dermis, 200 times visual fields, 10 days administration, x ± s, n = 10) is reported as 66.40 ± 9.28^a. For the same compound, the Baker scores in assay [1] (test drugs 100 mg/kg intragastric once a day, positive control 2.25 mg/kg twice a day, 10 days, x ± s, n = 10) is reported as 6.39 ± 1.53^a. Moreover, in assay [1] (setting [2]), the “degree of parakeratosis under light microscope” value is “middle degree of parakeratosis”; the “epidermis wooden stick-like hyperplasia” value is “middle degree of wooden stick-like hyperplasia”; the “monocyte infiltration surrounding blood vessels in dermis” value is given as “small amounts of monocyte infiltration”; the punctiform granular layer result was “local visible punctiform granular layer and hyperkeratinization”. In assay [1] (setting [2]), the spinous layer thickness is on record as 24-32 layers. Besides, the cAMP/cGMP in the assay with cAMP and cGMP in serum (ratio of serum contents) is recorded as 3.02 ± 0.08^ab. In the assay with cAMP and cGMP in serum (setting [3]), the cAMP in serum was 10.22 ± 0.73^ab pmol/m1 and the cGMP in serum is 3.38 ± 0.20^ab pmol/m1. Moreover, the “VEGF levels in serum” value in the assay on VEGF is listed as 93.40 ± 6.54^ab pg/m1.
